# Measurements from patent US20250270648A1, “MOLECULAR SIGNATURE FOR ASSESSING THE RESPONSIVENESS OF CANCER TO MITOCHONDRIA-TARGETED ANTIOXIDANTS” (UNIVERSITÉ CATHOLIQUE DE LOUVAIN, priority 2021, published 2025).
# How the values were obtained:
# [1] = test system: Human MDA-MB-231 breast cancer cells; experiment: Cell viability, crystal violet; assay type: cell-based; settings: increasing doses of cisplatin ±100 nM MitoQ, 48 h
# Description: […] The solution was carefully removed and plates were washed twice with water. After drying protected by light, cells were resuspended in 50 μl DMSO and the plates were read with a Victor X4 plate reader (Perkin®).
# 4T1 cells = experiment: Invasion, Matrigel-coated transwells; assay type: cell-based, mouse; settings: 0.1 μg/mL DXR + 100 nM MitoQ
# Description: Previous to migration and invasion assays, cells were pretreated with the indicated amounts of drugs for 16 h, and left to recover for 6 h in full culture medium. Migration assays were performed in a NeuroProbe® standard 48-well chemotaxis chamber according to manufacturer's instructions. Briefly, the bottom chamber was filled with DMEM containing 0.5% serum as a chemo-attractant. Fifty thousand cells were seeded in the upper chamber in the same medium but without serum ±MitoQ where indicated, and allowed to migrate overnight through an 8-μm pore-size polycarbonate membrane. A similar stimulation protocol was used for invasion assays, with the difference of using Matrigel-coated transwells (Corning®). With MCF7 cells, membranes were previously incubated for 30 min with a solution of Vitronectin 10 μg/ml (Sigma-Aldrich®, #SRP3186). Migrated/invaded cells were fixed and stained with 100 μl of a 0.23% crystal violet solution (Sigma-Aldrich®, #C0775) for 10 min before counting on a SpectraMax™ i3 spectrophotometer equipped with a MiniMax imaging cytometer, using the SoftMax Pro software. Data were normalized to vehicle-treated cells (control).
# MDA-MB-231 cells = experiment: Intracellular ATP, CellTiter-Glo; assay type: cell-based, human; settings: MitoQ 100 nM, 48 h
# Description: Intracellular ATP levels were measured after 48 h of treatment ±MitoQ, using the CellTiter-Glo Luminescent Viability Assay (Promega®) on a Glomax 96 microplate luminometer (Promega®) following manufacturer's instructions. Results were normalized to cell number.
# MMTV-PyMT mice = experiment: Spontaneous metastatic breast cancer, FEC ±MitoQ; assay type: in vivo, mouse; settings: 6 weeks
# Description: Female FVB/N-Tg(MMTV-PyMT)634Mul/J (MMTV-PyMT) mice that express the polyomavirus middle T antigen spontaneously develop orthotropic multifocal breast adenocarcinomas that spontaneously disseminate metastases to the lungs during mouse lifetime. For spontaneous metastasis assays, female MMTV-PyMT mice (The Jackson Laboratory) were daily observed for signs of spontaneous primary tumors starting at 6 weeks of age. Once tumors became palpable, 4 additional weeks were waited to mimic a clinical time frame between first tumor signs and treatment initiation. Ten weeks-old mice with primary tumors of ˜0.8 cm in diameter received a single dose of FEC chemotherapy (100 mg/Kg 5-FU, 5 mg/Kg epirubicin, 100 mg/Kg cyclophosphamide), a clinically relevant neoadjuvant or adjuvant chemotherapeutic combination. Animals were then randomly assigned to a group receiving daily 18 mg/Kg MitoQ or an equal volume of vehicle by oral gavage. They were sacrificed at 16 weeks-old, and the lungs insufflated with Indian ink for metastasis quantification as described above. Primary tumors were collected, weighted, and processed for RT-qPCR.
# [2] = test system: MDA-MB-231 human breast cancer cells; experiment: Seahorse oximetry, oxygen consumption rates (OCRs); assay type: cell-based; settings: MitoQ 100 nM, 48 h
# Description: Oxygen consumption rates (OCRs) were determined on a Seahorse XF96 bioenergetic analyzer using the XF cell Mito stress kit (Agilent Technologies®), according to manufacturer's recommendations. Briefly, MDA-MB-231 (10^4 cells/well), SkBr3 (10^4 cells/well), MDA-MB-436 (10^4 cells/well) or MCF10A (10^5 cells/well) were plated on XF96 culture plates 16 h before experiments in DMEM containing 10% FBS, and treated ±MitoQ for 48 h. On the day of analysis, culture media were replaced by DMEM containing 10 mM glucose, 2 mM glutamine, 1.85 g/L NaCl, 3 mg/L phenol red, pH 7.4. Cells were incubated for 1 h in a CO2-free incubator before analysis. Sequentially, basal OCR was acquired without treatment; ATP-linked OCR after the addition of 1 μM of ATP synthase inhibitor oligomycin; maximal OCR after mitochondrial potential disruption using 1 μM of ionophore carbonyl cyanide-4-(trifluoromethoxy) phenylhydrazone (FCCP); and non-mitochondrial OCR after the addition of 0.5 μM of Complex I inhibitor rotenone together with 0.5 μM of Complex III inhibitor antimycin A. All data were normalized by total protein content (Bio-Rad® Protein Assay; catalogue #5000006) measured right after oximetry. Mitochondrial OCRs (mtOCRs) were calculated by subtracting non-mitochondrial OCRs to the corresponding basal, maximal and ATP-linked OCRs.
smiles,measurement,setting,value
COC1=C(OC)C(=O)C(CCCCCCCCCC[P+](c2ccccc2)(c2ccccc2)c2ccccc2)=C(C)C1=O [MitoQ],"cancer cell killing activity, cisplatin combined with MitoQ",[1],did not interfere
same,DXR-stimulated cell invasion,4T1 cells,inhibited
same,ATP production,MDA-MB-231 cells,overall decrease
same,number of surface lung metastases,MMTV-PyMT mice; FEC + MitoQ 18 mg/kg daily oral vs FEC + vehicle,significantly repressed
same,total primary tumor weight,"MMTV-PyMT mice; FEC + MitoQ 18 mg/kg daily oral vs FEC + vehicle, P=0.1395",not altered
same,mice metastasis-free,"MMTV-PyMT mice; FEC + MitoQ 18 mg/kg daily oral, all 15 FEC+ control mice had metastases",4 of 21
same,"basal, maximal and ATP-linked oxygen consumption rates (OCRs)",[2],decreased
